According to patent US20210246109A1, “POTENT AND SELECTIVE INHIBITORS OF CYTOCHROME P450” (University of Kentucky Research Foundation, priority 2020, published 2021):
“And” between values parts separate entries of the source, which are not always exact repeats. Identical values can stand only once. Like-named read-outs stand apart in the source and are kept apart here.

Assays:
HEK = experiment: Cytotoxicity, resazurin, 72 hours after compound addition; format: cell-based
Experimental: Cytotoxicity was assessed at 72 hours after compound addition using resazurin. The compounds that function as selective 1B1 inhibitors had no effect on cell health. This is an essential feature for any chemopreventative agent or molecules intended to block the detrimental action of an enzyme.

CYP1B1 = target: T1, CYP1B1 (Homo sapiens, UniProt Q16678); experiment: EROD assay in inducible CYP1B1 cell line; format: cell-based
T1 construct: expressed in transfected cells
T1 sequence (Q16678 1-543): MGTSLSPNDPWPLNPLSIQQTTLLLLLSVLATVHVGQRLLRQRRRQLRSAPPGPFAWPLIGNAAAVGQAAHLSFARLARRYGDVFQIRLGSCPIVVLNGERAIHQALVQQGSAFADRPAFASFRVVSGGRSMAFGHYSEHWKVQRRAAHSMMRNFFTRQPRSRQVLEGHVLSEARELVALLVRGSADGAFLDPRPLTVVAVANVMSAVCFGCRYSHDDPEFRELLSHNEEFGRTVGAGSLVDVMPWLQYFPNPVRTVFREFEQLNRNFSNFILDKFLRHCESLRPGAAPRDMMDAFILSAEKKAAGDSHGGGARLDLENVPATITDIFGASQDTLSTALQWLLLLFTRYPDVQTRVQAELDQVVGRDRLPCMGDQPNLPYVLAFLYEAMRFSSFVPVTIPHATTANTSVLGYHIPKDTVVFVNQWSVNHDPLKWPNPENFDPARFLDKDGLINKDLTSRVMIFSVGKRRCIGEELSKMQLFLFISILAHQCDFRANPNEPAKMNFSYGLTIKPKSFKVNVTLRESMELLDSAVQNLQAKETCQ
Experimental: (§1) The activity of the inhibitors was assessed in a novel cell based assay generated for the purpose of this project. Enzymatic turnover of CYP1B1 was measured using the ethoxy-resorufin-O-deethylase (EROD) assay with the fluorescent substrate, resorufin ethyl ether. Cell lines were generated where the gene for CYP1B1 alone or CYP1B1 and cytochrome P450 reductase (CPR) were both under the control of an inducible promoter. A cell line was generated for counter screening where the gene for CYP1A1 was used. CYP1A1 is the closest family member to CYP1B1.

CYP1A1 = target: T2, CYP1A1 (Homo sapiens, UniProt P04798); experiment: EROD assay in CYP1A1 counter-screen cell line; format: cell-based; details: for SI 1B1:1A1: selectivity index
T2 construct: expressed in transfected cells
T2 sequence (P04798 1-512): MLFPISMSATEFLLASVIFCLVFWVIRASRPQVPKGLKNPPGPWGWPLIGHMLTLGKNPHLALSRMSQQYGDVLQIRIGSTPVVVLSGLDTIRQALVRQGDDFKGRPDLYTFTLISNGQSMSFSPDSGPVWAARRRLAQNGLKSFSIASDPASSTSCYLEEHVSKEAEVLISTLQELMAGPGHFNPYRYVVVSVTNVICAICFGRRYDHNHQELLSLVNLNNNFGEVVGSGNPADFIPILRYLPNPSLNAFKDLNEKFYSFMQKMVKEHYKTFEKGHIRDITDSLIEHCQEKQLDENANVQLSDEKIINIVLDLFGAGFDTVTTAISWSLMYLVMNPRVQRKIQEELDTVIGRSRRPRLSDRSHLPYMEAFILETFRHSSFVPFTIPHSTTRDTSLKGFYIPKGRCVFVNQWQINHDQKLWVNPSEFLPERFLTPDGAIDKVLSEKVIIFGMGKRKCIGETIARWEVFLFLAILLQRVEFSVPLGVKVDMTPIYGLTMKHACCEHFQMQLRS
Experimental: as §1

[1] = target: T3, pooled human liver microsomes (pHLMs) (Homo sapiens, UniProt P05177); experiment: EROD counterscreen in pooled human liver microsomes; format: biochemical; details: human, microsomes, Table 3; read-out: IC50 pHLM
T3 sequence (P05177 2-516): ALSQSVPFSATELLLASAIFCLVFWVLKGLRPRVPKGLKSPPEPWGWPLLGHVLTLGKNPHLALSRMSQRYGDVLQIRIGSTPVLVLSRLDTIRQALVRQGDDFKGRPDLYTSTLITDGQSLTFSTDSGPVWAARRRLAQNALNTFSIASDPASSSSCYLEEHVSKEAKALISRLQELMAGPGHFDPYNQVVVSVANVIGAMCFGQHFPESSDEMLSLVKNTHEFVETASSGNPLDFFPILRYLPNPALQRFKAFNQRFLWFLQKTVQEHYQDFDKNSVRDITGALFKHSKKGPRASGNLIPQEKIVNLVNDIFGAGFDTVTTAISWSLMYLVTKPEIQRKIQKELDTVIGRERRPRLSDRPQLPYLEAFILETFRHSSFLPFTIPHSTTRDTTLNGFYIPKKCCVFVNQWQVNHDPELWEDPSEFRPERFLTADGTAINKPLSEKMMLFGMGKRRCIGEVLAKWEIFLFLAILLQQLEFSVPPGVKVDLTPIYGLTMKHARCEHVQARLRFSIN
Description: Human liver microsomes were used as a counterscreen to experimentally determine the magnitude of inhibitor selectivity.

[2] = Table 1, 72 hours, resazurin, read-out: Cytotoxicity IC50
[3] = Table 3, HEK, read-out: HEK cytotoxicity
[4] = human, probe resorufin ethyl ether, Table 3, read-out: IC50 1A1
[5] = Table 2, EROD assay, read-out: IC50 CYP1B1
[6] = Table 2, EROD assay, read-out: IC50 CYP1A1

Row | SMILES | IC50 (CYP1B1; Table 3, read-out: IC50 1B1) | HEK cell viability % at 10 μM (HEK; Table 3, HEK) | IC50 (CYP1A1; Table 3, read-out: IC50 1A1) | IC50 [1] | further results
1 | O=c1cc(-c2ccccc2)oc2c1ccc1ccccc12 [ANF, reference compound] |  |  |  |  | IC50 (HEK; [2]): > 10000 nM; IC50 (HEK; [3]): > 10000 nM
2 | COc1ccc(/C=C/c2cnccn2)c(OC)c1 [GL435] | 510 nM | 71.4% | 2600 nM | 1570 ± 290 nM | 
3 | COc1cc(/C=C/c2cnccn2)cc(OC)c1 [GL437] | 660 nM | 103.1% | 4280 nM and 3290 nM | 5270 ± 1600 nM | 
4 | COc1cc(/C=C/c2ccncn2)cc(OC)c1 [GL443] | 760 nM | 105.2% | > 10000 nM | 2300 ± 980 nM | 
5 | COc1cc(OC)c(/C=C/c2ccncn2)c(OC)c1 [GL456] | 210 nM | 93.6% | > 10000 nM | 150 ± 80 nM | IC50 (CYP1A1; [4]): 10000 nM
6 | COc1ccc(/C=C/c2cccnc2)c(OC)c1 [GL457] | 310 nM | 91.5% | 403 nM and 360 nM | 420 ± 240 nM | 
7 | COc1ccc(/C=C/c2cncnc2)c(OC)c1 [GL458] | 2510 nM | 95.8% | 4130 nM and 2500 nM | 2260 ± 1050 nM | 
8 | COc1ccc(/C=C/c2cc[n+](C)cn2)c(OC)c1.[I-] [GL461] | 13900 nM | 103% | > 10000 nM |  | 
9 | COc1cc(/C=C/c2ccncn2)cc(OC)c1OC [GL465] | 260 nM | 83.4% | 730 nM and 740 nM | 4400 ± 1710 nM | 
10 | COc1ccc(/C=C/c2ccccc2)c(OC)c1 [GL469] |  | 124.2% | 4460 nM and > 10000 nM | 6000 nM | 
11 | C#CCOc1ccc(/C=C/c2ccncn2)cc1 [GL508] | 105 nM | 93.4% | 5600 nM | 32900 nM | IC50 (CYP1A1; [4]): 10000 nM
12 | N#CCOc1ccc(-c2nc3ccccc3[nH]2)cc1 [GL509] |  | 75% | 5500 nM and 3500 nM | 8360 nM | 
13 | O=c1[nH]c(-c2ccc(OC/C(I)=C\I)cc2)nc2ccccc12 [GL511] | 11.8 nM | 64.3% | > 10000 nM | 7710 nM | 
14 | COc1ccc(-c2nc(O)c3ccccc3n2)c(OC)c1 [GL512] | 11.6 nM | 85.3% | 2400 nM and 1040 nM | 16900 nM | 
15 | COc1ccc(-c2nc3ccccc3c(=O)n2CC#N)c(OC)c1 [GL519] | 970 nM | 88.7% | > 10000 nM |  | 
16 | COc1cc(OCC#N)ccc1-c1nc2ccccc2c(=O)[nH]1 [GL521] | 0.51 nM and 1.3 nM |  | 1230 nM and 1180 nM | > 10000 nM | 
17 | COc1cc(-c2nc3ccccc3c(=O)[nH]2)ccc1OCC#N [GL522] |  | 80.6% | 2270 nM and 970 nM | > 10000 nM | 
18 | N#CCOc1ccc(-c2nc3ccccc3[nH]2)cc1 [GL523] |  | 93.4% | > 10000 nM |  | 

Row | SMILES | IC50 (CYP1B1; Table 3, read-out: IC50 1B1) | HEK cell viability % at 10 μM (HEK; Table 3, HEK) | IC50 (CYP1A1; Table 3, read-out: IC50 1A1) | IC50 [1] | further results
19 | COc1cc(-c2nc3ccc(I)cc3c(=O)[nH]2)ccc1OCC#N [GL551] | < 0.25 nM |  | 560 nM | > 3000 nM | 
20 | N#CCOc1ccc(-c2nc(OCCCCCCBr)c3ccccc3n2)cc1 [GL564] | < 2.5 nM |  | 1940 nM | > 10000 nM | 
21 | N#CCOc1ccc(-c2nc(OCCCCCCN=[N+]=[N-])c3ccccc3n2)cc1 [GL565] | < 2.5 nM |  | 1870 nM | > 10000 nM | 
22 | CC(C)(C)OC(=O)NCCCOc1nc(-c2ccc(OCC#N)cc2)nc2ccccc12 [GL571] | < 2.5 nM |  | 1280 nM | > 10000 nM | 
23 | N#CCOc1ccc(-c2nc(OCCCN)c3ccccc3n2)cc1 [GL572] | < 2.5 nM |  | 2120 nM | > 10000 nM | 
24 | C#CCOc1ccc(-c2nc(-c3ccc(C#N)cc3)cs2)cc1 [GL664] |  |  |  |  | IC50 (CYP1B1; [5]): 202 nM; IC50 (CYP1A1; [6]): 696 nM; SI 1B1:1A1 (CYP1A1): 3.44
25 | Fc1ccc(-c2csc(-c3ccccn3)n2)cc1C(F)(F)F [GL666] |  |  |  |  | IC50 (CYP1B1; [5]): 83.8 nM; IC50 (CYP1A1; [6]): 240 nM; SI 1B1:1A1 (CYP1A1): 2.86
26 | Oc1ccc(-c2nc(-c3ccc(F)c(C(F)(F)F)c3)cs2)cc1 [GL678] |  |  |  |  | IC50 (CYP1B1; [5]): 208 nM; IC50 (CYP1A1; [6]): 14700 nM; SI 1B1:1A1 (CYP1A1): 70.5
27 | O=c1[nH]c(-c2ccc(F)c(C(F)(F)F)c2)nc2ccccc12 [GL-700] | 41 nM |  | 2300 nM |  | 
28 | Fc1ccc(-c2nc3ccccc3[nH]2)cc1C(F)(F)F [GL-706] | 85 nM |  | 320 nM |  | 
29 | c1ccc2nc(-c3nc4ccccc4[nH]3)ccc2c1 [GL-707] | 44 nM |  | 760 nM |  | 
30 | COc1cc(C(=O)/C=C/c2ccc3ccccc3n2)cc(OC)c1OC [GL-713] | 550 nM |  | 3000 nM |  | 
31 | COc1ccc(/C=C/C(=O)c2cc(OC)c(OC)c(OC)c2)c(OC)c1 [GL-714] | 1100 nM |  | 5200 nM |  | 
32 | Oc1nc(-c2ccc(F)cc2)nc2ccccc12 [GL-717] | 1900 nM |  | 3900 nM |  | 
33 | N#CCOc1nc(-c2ccc(F)cc2)nc2ccccc12 [GL-718] | 850 nM |  | 15 nM |  | 
34 | Fc1ccc(-c2nc3ccccc3[nH]2)cc1 [GL-719] | 3000 nM |  | 5200 nM |  | 
35 | COc1cc(/C=C/c2ccc(OC)cc2OC)cc(OC)c1 [TMS, reference compound] |  |  |  |  | IC50 (CYP1B1; Table 1, read-out: CYP1B1 IC50): 8.3 nM; IC50 (HEK; [2]): 10000 nM; IC50 (HEK; [3]): > 10000 nM
